Data reported in patent US5583218A, “Carbapenem derivatives” (Daiichi Pharmaceutical Co., Ltd., priority 1988, dated 1996).
Converted amounts (≈) assume the structure as drawn. Like-named read-outs stand apart in the source and are kept apart here.

How the values were obtained:
[1] = test system: E. coli NIHJ; assay: Minimum inhibitory concentration against E. coli NIHJ; assay type: cell-based; details: Escherichia coli
[2] = test system: S. aureus 209P; assay: Minimum inhibitory concentration against S. aureus 209P; assay type: cell-based; details: Staphylococcus aureus
[3] = test system: Ser. marcescens 10104; assay: Minimum inhibitory concentration against Ser. marcescens 10104; assay type: cell-based, Serratia marcescens
[4] = test system: C. difficile GAI-0747; assay: Minimum inhibitory concentration against C. difficile GAI-0747; assay type: cell-based, Clostridium difficile; details: Clostridioides difficile, GAI0747
[5] = test system: Ps. aeruginosa 32233; assay: Minimum inhibitory concentration against Ps. aeruginosa 32233; assay type: cell-based; details: Pseudomonas aeruginosa
[6] = test system: Ent. cloacae 03400; assay: Minimum inhibitory concentration against Ent. cloacae 03400; assay type: cell-based; details: Enterobacter cloacae
[7] = test system: gram-positive and gram-negative bacteria, obligate anaerobes, strains resistant to penicillins and cepharosporins; details: bacteria resistant to penicillin and cepharosporin antibiotics; background art; cited from earlier work
[8] = Serratia marcescens, Ser. marcescens 10104, read-out: Minimum Inhibitory Concentration (MIC)

MIC [1] [µg/mL] | MIC [2] [µg/mL] | MIC [4] [µg/mL] | MIC [5] [µg/mL] | MIC [6] [µg/mL] | MIC [3, 8] [µg/mL] | SMILES | MIC ([3]; Serratia marcescens, 10104, read-out: Minimum Inhibitory Concentration (MIC)) [µg/mL] | antibacterial activity [7]
 |  |  |  |  |  | C[C@@H](O)[C@H]1C(=O)N2C(C(=O)O)=C(SCCN)C[C@H]12 [Thienamycin] |  | effective even against bacteria resistant to penicillin and cepharosporin antibiotics
< 0.1 | < 0.1 | 3.13 (≈ 8.96 µM) | 6.25 (≈ 17.9 µM) | < 0.1 | < 0.1 | C[C@@H](O)[C@H]1C(=O)N2C(C(=O)O)=C(SC3Cc4cncn4C3)[C@H](C)[C@H]12 (single isomer, unassigned) [Compound 1] |  | 
< 0.1 | < 0.1 | 1.56 (≈ 4.46 µM) | 6.25 (≈ 17.9 µM) | < 0.1 | < 0.1 | C[C@@H](O)[C@H]1C(=O)N2C(C(=O)O)=C(SC3Cc4nccn4C3)[C@H](C)[C@H]12 (single isomer, unassigned) [Compound 2] |  | 

SMILES | MIC [1] [µg/mL] | MIC [2] [µg/mL] | MIC [4] [µg/mL] | MIC [5] [µg/mL] | MIC [6] [µg/mL] | MIC [3, 8] [µg/mL] | MIC ([3]; Serratia marcescens, 10104, read-out: Minimum Inhibitory Concentration (MIC)) [µg/mL] | antibacterial activity [7]
C[C@@H](O)[C@H]1C(=O)N2C(C(=O)O)=C(SCCN=CN)C[C@H]12 [MK-0787, reference compound] | 0.2 (≈ 0.668 µM) | < 0.1 | 50 (≈ 167 µM) | 1.56 (≈ 5.21 µM) | 0.78 (≈ 2.61 µM) |  | 1.56 (≈ 5.21 µM) | 
